Literature values in PMC5358987 (Drug Design, Development and Therapy, 2017).

Tyrosinase inhibition (tyrosinase): potent competitive tyrosinase inhibitors
Compound: O=C(O)[C@@H]1CSC(c2ccc(O)cc2O)N1 (mixture of isomers) [MHY384, (2RS,4R)-2-(2,4-dihydroxyphenyl)thiazolidine-4-carboxylic acid]
Reduction of melanogenesis (HRM2 hairless mice): effectively reduce melanogenesis
